Laboratory results taken from patent US4952565A (priority 1986, dated 1990).
Read-outs that look alike come from different tables or passages of the source.

Columns and labels:
[1] = In vitro ibuproxam release from pharmaceutical forms, Paddle Method USP XXI; assay type: physicochemical; conditions: 0.027 HCl, 37 °C, 100 rpm; ibuproxam and Ibudros 400 mg, complex equiv. to 200 mg; mean of 3
[2] = Dissolution rates, Paddle Method, Apparatus 2 USP XXI, artificial gastric and intestinal juice; assay type: physicochemical; conditions: 37 °C, 100 rpm, equ. 400 mg
Experimental: The dissolution tests were performed in 0.027N HCl and 0.06N HCl (artificial gastric juice) and in artificial intestinal juice, pH 6.0, at the temperature of 37° C. The volume of the artificial biological fluids was 1000 ml. The stirring rate of the paddle mixer was 100 rpm.

[3] = In vitro diffusion/resorption test, Stricker method, Sartorius model; assay type: in vitro ADME; conditions: for Papp: not told, read-out: In vitro diffusion rate constant (kd) (converted)
Experimental: The resorption tests were performed according to the Stricker method on a Sartorius Dissolution Model (Sartorius Dissolution Model, Instruction Manual, Sartorius Membranfilter, Gottingen 1972). The diffusion rates of ibuproxam through artificial lipid membranes at different pH values were determined. On the basis of the found diffusion rate constants (kd) the in vitro resorption rate constants (ka) were calculated.

[4] = Dissolution profiles/rates on Sartorius Dissolution Model SM 16751; assay type: physicochemical
Experimental: The quantities of the dissolved (MG) and of the resorbed (Mi) active ingredient were determined using a Sartorius Dissolution Model SM 16751 (Sartorius Dissolution Model, Instruction Manual, Sartorius Membranfilter, Gottingen 1972).

SMILES: CC(C)Cc1ccc(C(C)C(=O)NO)cc1 (stereo not shown) [ibuproxam, 2-(4-isobutylphenyl)-propiohydroxamic acid]
- % dissolved within 15 min [1]: 35.8%
- % dissolved within 30 min [1]: 43.4%
- % dissolved within 60 min [1]: 54.5%
- % of dissolved ibuproxam ([2]; 0.027 N HCl pH 1.6, 5 min): 21.4%
- % of dissolved ibuproxam ([2]; 0.027 N HCl pH 1.6, 15 min): 28.1%
- % of dissolved ibuproxam ([2]; 0.027 N HCl pH 1.6, 30 min): 33.3%
- % of dissolved ibuproxam ([2]; 0.027 N HCl pH 1.6, 45 min): 37.4%
- % of dissolved ibuproxam ([2]; 0.027 N HCl pH 1.6, 60 min): 43.1%
- % of dissolved ibuproxam ([2]; 0.06 N HCl pH 1.2, 5 min): 21.8%
- % of dissolved ibuproxam ([2]; 0.06 N HCl pH 1.2, 15 min): 29.8%
- % of dissolved ibuproxam ([2]; 0.06 N HCl pH 1.2, 30 min): 37.4%
- % of dissolved ibuproxam ([2]; 0.06 N HCl pH 1.2, 45 min): 40.4%
- % of dissolved ibuproxam ([2]; 0.06 N HCl pH 1.2, 60 min): 41.7%
- % of dissolved ibuproxam ([2]; artificial intestinal juice pH 6.0, 5 min): 10.2%
- % of dissolved ibuproxam ([2]; artificial intestinal juice pH 6.0, 15 min): 21.2%
- % of dissolved ibuproxam ([2]; artificial intestinal juice pH 6.0, 30 min): 27.7%
- % of dissolved ibuproxam ([2]; artificial intestinal juice pH 6.0, 45 min): 32.7%
- % of dissolved ibuproxam ([2]; artificial intestinal juice pH 6.0, 60 min): 33.3%
- Papp ([3]; pH 1.2, average of 4 tests): 235 ×10⁻⁶ cm/s
- Papp ([3]; pH 3.0, average of 4 tests): 238 ×10⁻⁶ cm/s
- Papp ([3]; pH 6.0, average of 4 tests): 233 ×10⁻⁶ cm/s
- In vitro resorption rate constant (ka) ([3]; pH 1.2, calculated from kd with G = 4.3): 0.060 min⁻¹
- In vitro resorption rate constant (ka) ([3]; pH 6.0, calculated from kd with G = 10.0): 0.138 min⁻¹
- dissolution rate (kdiss) [4]: 0.00017 s⁻¹
- effect of pH of the biological fluids on dissolution rate, in words [4]: does not affect the dissolution rate
